Holding throughout (type): cell-based
For one experiment, the target named is T1, HLA-B*2701 (Homo sapiens, UniProt P01889, D138H/D201E/D98Y/E176V/E204Q/G107R/H137Y/K202T/L105A/N104T/N87E/Q56L/Q94K/R106L/R155S/R180L/S101N/S121N/S48T/Y140D/Y33H/Y91C).
T1 construct: expressed in transfected cells; host or cells: RMA-S (TAP-deficient murine cell line)
Put plainly: HLA/peptide complex stability assay, RMA-S cells transfected with HLA-B*2701. The conditions noted are these: for fluorescence index, B*2701: peptide 200 µM.

For another experiment, the target named is T2, HLA-B*2706 (Homo sapiens, UniProt P01889, A235G/D201E/E204Q/G107R/H137Y/K202T/N104T/N87E/Q56L/Q94K/R106L/R155S/R180L/S121N/S48T/Y33H/Y91C).
T2 construct: expressed in transfected cells; host or cells: RMA-S (TAP-deficient murine cell line)
Put plainly: HLA/peptide complex stability assay, RMA-S cells transfected with HLA-B*2706. Particulars: SD; for fluorescence index, B*2706: peptide 200 µM.

For a further experiment, the target named is HLA-B*2704 (Homo sapiens, UniProt P01889, A235G/D138H/D201E/E204Q/G107R/H137Y/K202T/N104T/N87E/Q56L/Q94K/R106L/R155S/R180L/S121N/S48T/Y140D/Y33H/Y91C). Put plainly: HLA/peptide complex stability assay, RMA-S cells transfected with HLA-B*2704. Particulars: for fluorescence index, B*2704: peptide 200 µM.
The next experiment deals with T3, HLA-B*2705 (Homo sapiens, UniProt P01889, D138H/D201E/E176V/E204Q/G107R/H137Y/K202T/N104T/N87E/Q56L/Q94K/R106L/R155S/R180L/S101D/S121N/S48T/Y140D/Y33H/Y91C).
T3 construct: expressed in transfected cells; host or cells: RMA-S (TAP-deficient murine cell line)
In words: HLA/peptide complex stability assay, RMA-S cells transfected with HLA-B*2705. The conditions noted are these: for fluorescence index, B*2705: peptide 200 µM.

A further experiment concerns the target T4, HLA-B*2709 (Homo sapiens, UniProt P01889, D138H/D201E/E176V/E204Q/G107R/H137Y/K202T/N104T/N87E/Q56L/Q94K/R106L/R155S/R180L/S101D/S121N/S48T/Y140H/Y33H/Y91C).
T4 construct: expressed in transfected cells; host or cells: RMA-S (TAP-deficient murine cell line)
Put plainly: HLA/peptide complex stability assay, RMA-S cells transfected with HLA-B*2709. The conditions noted are these: SD; for fluorescence index, B*2709: peptide 200 µM.

Another experiment has as its target HLA-B*2702 (Homo sapiens, UniProt P01889, D138H/D201E/E176V/E204Q/G107R/H137Y/K202T/L105A/N104I/N87E/Q56L/Q94K/R106L/R155S/R180L/S101N/S121N/S48T/Y140D/Y33H/Y91C). Put plainly: HLA/peptide complex stability assay, RMA-S cells transfected with HLA-B*2702. Particulars: for fluorescence index, B*2702: peptide 200 µM.
The target in a further experiment is T5, HLA-B*2703 (Homo sapiens, UniProt P01889, D138H/D201E/E176V/E204Q/G107R/H137Y/K202T/N104T/N87E/Q56L/Q94K/R106L/R155S/R180L/S101D/S121N/S48T/Y140D/Y33H/Y83H/Y91C).
T5 construct: expressed in transfected cells; host or cells: RMA-S (TAP-deficient murine cell line)
In words: HLA/peptide complex stability assay, RMA-S cells transfected with HLA-B*2703. Particulars: for fluorescence index, B*2703: peptide 200 µM.

The mark [1] stands for this setting: relative affinity (EC50 class), B*2702.
[2] abbreviates: Table 1, transfected RMA-S cells, 2 h 26°C then 2 h 37°C, ME1 mAb, flow cytometry, ratio to control without peptide, mean ± S.D. of three to five independent experiments, SD.
Setting [3] is: Table 4, monosubstituted Ala analogs, transfected RMA-S cells, flow cytometry, mean ± S.D. of three to five independent experiments, SD.
The mark [4] stands for this setting: Table 1, transfected RMA-S cells, 2 h 26°C then 2 h 37°C, ME1 mAb, flow cytometry, ratio to control without peptide, mean ± S.D. of three to five independent experiments.
Setting [5] is: Table 4, monosubstituted Ala analogs, transfected RMA-S cells, flow cytometry, mean ± S.D. of three to five independent experiments.

Where two headings read alike, the source gives them in different places. Ends that are not written are not given here.

What is called EC50 is the concentration needed to bring the measured effect to its halfway point. On to “RRYPDAVYL [MV F 438-466, reference compound]”, for which the EC50 at HLA-B*2701 (Table 2, peptide concentration at 50% of maximum fluorescence, range 0.01–200 µM, transfected RMA-S cells, flow cytometry, mean ± S.D. of three to five independent experiments, - = no statistical difference in fluorescence index to negative control, SD, read-out: EC50, B*2701) was determined as 5 ± 2 µM; at HLA-B*2706 (Table 2, peptide concentration at 50% of maximum fluorescence, range 0.01–200 µM, transfected RMA-S cells, flow cytometry, mean ± S.D. of three to five independent experiments, - = no statistical difference in fluorescence index to negative control, read-out: EC50, B*2706), 2 ± 1 µM; at HLA-B*2704 (Table 2, peptide concentration at 50% of maximum fluorescence, range 0.01–200 µM, transfected RMA-S cells, flow cytometry, mean ± S.D. of three to five independent experiments, - = no statistical difference in fluorescence index to negative control, SD, read-out: EC50, B*2704), 18 ± 4 µM; at HLA-B*2705 (Table 2, peptide concentration at 50% of maximum fluorescence, range 0.01–200 µM, transfected RMA-S cells, flow cytometry, mean ± S.D. of three to five independent experiments, - = no statistical difference in fluorescence index to negative control, SD, read-out: EC50, B*2705), 3 ± 2 µM; on HLA-B*2709 (Table 2, peptide concentration at 50% of maximum fluorescence, range 0.01–200 µM, transfected RMA-S cells, flow cytometry, mean ± S.D. of three to five independent experiments, - = no statistical difference in fluorescence index to negative control, read-out: EC50, B*2709) it was 4 ± 1 µM; on HLA-B*2702 (Table 2, peptide concentration at 50% of maximum fluorescence, range 0.01–200 µM, transfected RMA-S cells, flow cytometry, mean ± S.D. of three to five independent experiments, - = no statistical difference in fluorescence index to negative control, SD, read-out: EC50, B*2702), 11 ± 4 µM. Also, the EC50 at HLA-B*2703 (Table 2, peptide concentration at 50% of maximum fluorescence, range 0.01–200 µM, transfected RMA-S cells, flow cytometry, mean ± S.D. of three to five independent experiments, - = no statistical difference in fluorescence index to negative control, SD, read-out: EC50, B*2703) came out at 4 ± 3 µM.

On to SRSALLAQM [M 76-84], for which the EC50 at HLA-B*2701 (EC50, B*2701, SD) was 15 ± 11 µM; on HLA-B*2706 (EC50, B*2706), 1 ± 1 µM; at HLA-B*2704 (EC50, B*2704, SD) it was 15 ± 6 µM; on HLA-B*2705 (EC50, B*2705, SD) it was 5 ± 5 µM; on HLA-B*2709 (EC50, B*2709), 6 ± 2 µM; on HLA-B*2702 (EC50, B*2702) it was greater than 200 µM. The EC50 on HLA-B*2702 (setting [1]) is greater than 200 µM; on HLA-B*2703 (EC50, B*2703, SD) it was 6 ± 3 µM. For the same sequence, the “relative MHC class I affinity according to the EC50 value, in words (high, medium, low)” value on HLA-B*2705 was “high”.

Regarding “VAFTSHEHF [CMV pp65, reference compound]”, the “fluorescence index, B*2701” value on HLA-B*2701 (setting [2]) and on HLA-B*2701 (setting [3]) was 1.0±0.1 throughout. For the same sequence, the “fluorescence index, B*2706” value at HLA-B*2706 (setting [4]) and at HLA-B*2706 (setting [5]) was 1.0±0.1 throughout. For the same sequence, the “fluorescence index, B*2704” value on HLA-B*2704 (setting [2]) and on HLA-B*2704 (setting [3]) was 1.0±0.1 in each case. Besides, the “fluorescence index, B*2705” value on HLA-B*2705 (setting [2]) and on HLA-B*2705 (setting [3]) was 1.0±0.1 in each case. Also, the “fluorescence index, B*2709” value on HLA-B*2709 (setting [4]) and at HLA-B*2709 (setting [5]) was 1.1±0.1 in each case. Besides, the “fluorescence index, B*2702” value at HLA-B*2702 (setting [2]) and at HLA-B*2702 (setting [3]) was 1.0±0.1 each time. The “fluorescence index, B*2703” value on HLA-B*2703 (setting [2]) and at HLA-B*2703 (setting [3]) was 1.0±0.1 each time.

VRNKDLNTL [M 169-177]: the EC50 on HLA-B*2701 (EC50, B*2701) was greater than 200 µM; at HLA-B*2701 (relative affinity (EC50 class), B*2701), greater than 200 µM; at HLA-B*2706 (EC50, B*2706), 3 ± 1 µM; on HLA-B*2704 (EC50, B*2704, SD), 56 ± 16 µM; on HLA-B*2704 (relative affinity (EC50 class), B*2704) it was 20 to 60 µM; at HLA-B*2705 (read-out: EC50, B*2705, SD), 82 ± 20 µM. In addition, the EC50 was 61 to 200 µM at HLA-B*2705 (relative affinity (EC50 class), B*2705); 19 ± 7 µM at HLA-B*2709 (EC50, B*2709); 94 ± 25 µM on HLA-B*2702 (EC50, B*2702, SD); 61 to 200 µM at HLA-B*2702 (setting [1]); greater than 200 µM at HLA-B*2703 (EC50, B*2703); greater than 200 µM at HLA-B*2703 (relative affinity (EC50 class), B*2703). In addition, the “relative MHC class I affinity according to the EC50 value, in words (high, medium, low)” value at HLA-B*2705 is “low affinity”.

The values above are taken from publication PMC4182091, “A Common Minimal Motif for the Ligands of HLA-B*27 Class I Molecules” (PLoS ONE, 2014).
